According to US20090093069A1, “Topiramate Immunoassays” (ARK Diagnostics, Inc., priority 2007, published 2009):

test system: antibody from rabbit #11341; experiment: Crossreactivity to topiramate metabolites in the homogeneous enzyme immunoassay (HITACHI 917); format: binding; conditions: metabolite 50.0 μg/mL, in the presence of 20 μg/mL topiramate
Method: % Crossreactivity=100×(“apparent concentration of measurand”/“concentration of crossreactant”)
(§1) The ARK Assay for topiramate is conducted using a liquid, ready-to-use, two-reagent kit. […] Topiramate containing sample is incubated with antibody reagent followed by the addition of the enzyme conjugate reagent. The enzyme conjugate activity decreases upon binding to the antibody. The enzyme conjugate, which is not bound to the antibody, catalyzes the oxidation of glucose 6-phosphate (G6P). The oxidation of G6P is coupled with the reduction of NAD^+ to NADH, which can be measured at 340 nm. The change in the absorbance at 340 nm can be measured spectrophotometrically. The topiramate concentration in a specimen can be measured in terms of G6PDH activity. The increase in the rate at 340 nm is due to the formation of NADH and is proportional to the enzyme conjugate activity. […] The assay rate increases with increasing the concentration of drug in the sample.
The apparent topiramate concentration for the metabolite is the difference in concentration with metabolite minus the concentration without metabolite.

| Compound | % Cross Reactivity |
| --- | --- |
| CC1(C)O[C@H]2[C@@H]3O[C@](C)(CO)O[C@@H]3CO[C@@]2(COS(N)(=O)=O)O1 [9-OH-Topiramate, 9-hydroxytopiramate] | 3.18% |
| CC1(C)O[C@H]2[C@@H]3O[C@@](C)(CO)O[C@@H]3CO[C@@]2(COS(N)(=O)=O)O1 [10-OH-Topiramate, 10-hydroxytopiramate] | 3.20% |

test system: antibodies raised with immunogens (10-KLH, 12-KLH, 12-L-KLH, 19-KLH, 22-KLH and 25-KLH); experiment: Enzyme-based assay format, reactivity of antibodies raised with the immunogens; format: binding; conditions: not given
Description: All the prepared haptens have utility for KLH and G6PDH bio-conjugation. immunogens (10-KLH, 12-KLH, 12-L-KLH, 19-KLH, 22-KLH and 25-KLH) were used to raise antibodies.

| Compound | reactivity of the antibodies |
| --- | --- |
| CC1(C)O[C@@H]2[C@@H](CO[C@@]3(CO)OC(C)(C)O[C@@H]23)O1 [diacetonefructose] | good reactivity |

test system: rabbit polyclonal antibody #11341; experiment: Coadministered drug interference study in the homogeneous enzyme immunoassay (HITACHI 917); format: binding; conditions: 5.0 μg/mL drug added to human serum containing 20.0 μg/mL topiramate
Method: The antibody was added into the antibody diluent to prepare the antibody reagent. The antibody reagent consists of antibody as prepared above, buffer, stabilizers, preservatives, and the substrates for the enzyme conjugate NAD and glucose 6 phosphate. […] The enzyme conjugate reagent consists of the conjugate, buffer, stabilizers and preservatives.
as §1
A high concentration of each coadministered drug was spiked into normal human serum with containing topiramate 20 μg/mL and assayed. Each sample was assayed in duplicate. […] The percentage concentration above 20.0 μg/mL of topiramate was calculated for each coadministered drug tested.

| Compound | % Interference [(20.0 μg/mL Topiramate) − (Result)] ÷ (drug conc.) × 100 |
| --- | --- |
| NC(N)=Nc1nc(CSCCC(N)=NS(N)(=O)=O)cs1 [Famotidine] | −0.2% |

same assay, conditions: 10.0 μg/mL drug added to human serum containing 20.0 μg/mL topiramate

| Compound | % Interference [(20.0 μg/mL Topiramate) − (Result)] ÷ (drug conc.) × 100 |
| --- | --- |
| NS(=O)(=O)c1cc(C(=O)O)c(NCc2ccco2)cc1Cl [Furosemide] | 0.10% |

same assay, conditions: 50.0 μg/mL drug added to human serum containing 20.0 μg/mL topiramate

| Compound | % Interference [(20.0 μg/mL Topiramate) − (Result)] ÷ (drug conc.) × 100 |
| --- | --- |
| CC(=O)Nc1nnc(S(N)(=O)=O)s1 [Acetazolamide] | 0.56% |
| CC(=O)Nc1ccc(O)cc1 [Acetominophen] | −0.38% |
| CC(C)NCC(O)COc1ccc(CC(N)=O)cc1 (stereo not drawn) [Atenolol] | −0.40% |
| O=C1CN=C(c2ccccc2Cl)c2cc([N+](=O)[O-])ccc2N1 [Clonazepam] | 0.70% |
| CN1C(=O)CN=C(c2ccccc2)c2cc(Cl)ccc21 [Diazepam] | 0.64% |
| CC(C)Cc1ccc(C(C)C(=O)O)cc1 (stereo not drawn) [Ibuprofen] | 2.30% |
| O=C1NC(=O)C(c2ccccc2)(c2ccccc2)N1 [Phenytoin] | 0.32% |

same assay, conditions: 100.0 μg/mL drug added to human serum containing 20.0 μg/mL topiramate

| Compound | % Interference [(20.0 μg/mL Topiramate) − (Result)] ÷ (drug conc.) × 100 |
| --- | --- |
| CC(=O)Oc1ccccc1C(=O)O [Acetylsalicyclic Acid] | 0.25% |
| Cn1c(=O)c2c(ncn2C)n(C)c1=O [Caffeine] | 0.35% |
| NC(=O)N1c2ccccc2C=Cc2ccccc21 [Carbamazepine] | −0.43% |
| NS(=O)(=O)c1cc(C2(O)NC(=O)c3ccccc32)ccc1Cl (stereo not drawn) [Chlorthalidone] | 0.16% |
| NCC1(CC(=O)O)CCCCC1 [Gabapentin] | −0.49% |
| Nc1nnc(-c2cccc(Cl)c2Cl)c(N)n1 [Lamotrogine] | −1.02% |
| COCCc1ccc(OCC(O)CNC(C)C)cc1 (stereo not drawn) [Metoprolol] | 0.35% |
| CCC1(c2ccccc2)C(=O)NC(=O)NC1=O [Phenobarbitol] | 1.08% |
| CCC1(c2ccccc2)C(=O)NCNC1=O [Primidone] | −1.83% |
| COc1ccc(CCN(C)CCCC(C#N)(c2ccc(OC)c(OC)c2)C(C)C)cc1OC (stereo not drawn) [Verapamil] | 1.07% |

same assay, conditions: 200.0 μg/mL drug added to human serum containing 20.0 μg/mL topiramate

| Compound | % Interference [(20.0 μg/mL Topiramate) − (Result)] ÷ (drug conc.) × 100 |
| --- | --- |
| CC[C@@H](C(N)=O)N1CCCC1=O [Levetiracetam] | −0.45% |
| CCCC(CCC)C(=O)O [Valproic Acid] | 0.50% |
| NS(=O)(=O)Cc1noc2ccccc12 [Zonisamide] | 0.08% |

same assay, conditions: 500.0 μg/mL drug added to human serum containing 20.0 μg/mL topiramate

| Compound | % Interference [(20.0 μg/mL Topiramate) − (Result)] ÷ (drug conc.) × 100 |
| --- | --- |
| CCC1(C)CC(=O)NC1=O (stereo not drawn) [Ethosuxamide] | −0.09% |
| NC(=O)OCC(COC(N)=O)c1ccccc1 [Felbamate] | 0.20% |

same assay, conditions: 750.0 μg/mL drug added to human serum containing 20.0 μg/mL topiramate

| Compound | % Interference [(20.0 μg/mL Topiramate) − (Result)] ÷ (drug conc.) × 100 |
| --- | --- |
| O=C(O)c1ccccc1O [Salicylic Acid] | −5.73% |
| CCCCNC(=O)NS(=O)(=O)c1ccc(C)cc1 [Tolbutamide] | −0.08% |

same assay, conditions: 2000.0 μg/mL drug added to human serum containing 20.0 μg/mL topiramate

| Compound | % Interference [(20.0 μg/mL Topiramate) − (Result)] ÷ (drug conc.) × 100 |
| --- | --- |
| Nc1ccc(S(N)(=O)=O)cc1 [Sulfanilamide] | −0.16% |
